Measurements from PubChem BioAssay (NCI).
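Grown in 96-well plates, cells were treated for 48 hours with each compound at five concentrations. Insufficient inhibition: endpoint recorded as highest concentration tested. TGI: concentration producing complete growth inhibition.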 Where a SMILES comes first, the peptide text is derived from it. [ ]: non-standard residue; d: D form. The star is where a group is joined. Phe(4-NO2) = N[CH](Cc1ccc([N+](=O)[O-])cc1)C(=O)O; Boc = CC(C)(C)OC(=O)*

Experiments:
Assay in all cases: NCI-60 cell line screen, 48 h
SK-MEL-5 melanoma = system: SK-MEL-5 melanoma
M14 melanoma = system: M14 melanoma
SK-MEL-2 melanoma = system: SK-MEL-2 melanoma
A498 renal = system: A498 renal
U251 CNS = system: U251 CNS
SF-268 CNS = system: SF-268 CNS
MOLT-4 leukemia = system: MOLT-4 leukemia
HCT-15 colon = system: HCT-15 colon
CAKI-1 renal = system: CAKI-1 renal
RXF 393 renal = system: RXF 393 renal
NCI-H226 lung = system: NCI-H226 lung

SMILES | TGI (SK-MEL-5 melanoma) [µM] | TGI (M14 melanoma) [µM] | TGI (SK-MEL-2 melanoma) [µM] | TGI (A498 renal) [µM] | TGI (U251 CNS) [µM] | TGI (SF-268 CNS) [µM] | TGI (MOLT-4 leukemia) [µM] | TGI (HCT-15 colon) [µM] | TGI (CAKI-1 renal) [µM] | TGI (RXF 393 renal) [µM] | TGI (NCI-H226 lung) [µM]
COC(=O)C1(C)C=CC(=O)C2(C)C1C(O)C1OC3CC(c4ccoc4)C(C)=C3C1(C)C2CC(=O)O (configuration not stated) | > 100 | > 100 | > 100 | > 100 | > 100 | > 100 | > 100 | > 100 | > 100 | – | –
Cc1ccc(S(=O)(=O)NNCNC(=O)c2ccccc2)cc1 | > 100 | > 100 | > 100 | – | > 100 | > 100 | > 100 | > 100 | > 100 | > 100 | > 100
CC(C)(C)c1cc(O)ccc1O | > 100 | > 100 | 3.18 | > 100 | 5.56 | > 51.1 | 27.1 | > 100 | > 70.4 | – | > 100
Cc1ccc2c(c1)-c1nc(N)c(C#N)c(-c3ccccc3)c1CCS2(=O)=O | > 100 | > 100 | > 100 | 98.9 | > 100 | > 100 | – | > 100 | > 100 | – | 78.5
C(=C\c1ccco1)/c1cccc(/C=C/c2ccco2)n1 | > 50 | > 50 | – | > 50 | – | > 50 | > 50 | > 50 | > 50 | > 50 | > 50
CC(=O)OCC1OC(n2c(-c3ccc(C)cc3)cc(-c3ccccc3)c(C#N)c2=S)C(OC(C)=O)C(OC(C)=O)C1OC(C)=O (configuration not stated) | > 100 | > 100 | – | > 100 | > 100 | > 100 | > 100 | > 100 | > 100 | > 100 | > 100
CNC(=O)CCC(NC(=O)OC(C)(C)C)C(=O)NC(Cc1ccc([N+](=O)[O-])cc1)C(=O)NCC(=O)NC (configuration not stated) (Boc-Glu(NHMe)-[Phe(4-NO2)]-Gly-NHMe; configuration not given here) | > 100 | > 100 | – | > 100 | > 100 | > 100 | > 100 | > 100 | > 100 | > 100 | > 100
